Data: ChEMBL document CHEMBL1201862, “PubChem BioAssay data set” (2004)
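Method: 48-hour compound exposure of cells in 96-well plates, five concentrations, linear interpolation of endpoints. The concentration for 50% growth inhibition is given as GI50.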 Calls of active or inactive are those of the source. Rule as the data show it: active = GI50 up to about 1.1 µM and inactive = higher.

What was measured:
Assay in all cases: NCI-60 cell line screen, 48 h
LOX IMVI = system: LOX IMVI
786-0 = system: 786-0
SK-OV-3 = system: SK-OV-3
NCI-H23 = system: NCI-H23
M14 = system: M14
KM12 = system: KM12
Hs-578T = system: Hs-578T
SN12C = system: SN12C
SNB-19 = system: SNB-19
PC-3 = system: PC-3
RXF 393 = system: RXF 393
SK-MEL-5 = system: SK-MEL-5
A549 = system: A549
COLO 205 = system: COLO 205
NCI-H226 = system: NCI-H226
HOP-92 = system: HOP-92
OVCAR-5 = system: OVCAR-5
SF-295 = system: SF-295
UO-31 = system: UO-31
TK-10 = system: TK-10
UACC-257 = system: UACC-257
SR = system: SR
RPMI-8226 = system: RPMI-8226
U-251 = system: U-251
SK-MEL-2 = system: SK-MEL-2
MDA-MB-435 = system: MDA-MB-435
CCRF-CEM = system: CCRF-CEM
HCT-116 = system: HCT-116
MDA-N = system: MDA-N
NCI-H522 = system: NCI-H522
UACC-62 = system: UACC-62
DU-145 = system: DU-145
OVCAR-3 = system: OVCAR-3
BT-549 = system: BT-549
SW-620 = system: SW-620
EKVX = system: EKVX
A498 = system: A498
OVCAR-8 = system: OVCAR-8
SF-539 = system: SF-539
HCC 2998 = system: HCC 2998
MDA-MB-231 = system: MDA-MB-231
HOP-62 = system: HOP-62
SF-268 = system: SF-268
MOLT-4 = system: MOLT-4
IGROV-1 = system: IGROV-1
HCT-15 = system: HCT-15
ACHN = system: ACHN
K562 = system: K562
HL-60 = system: HL-60
Malme-3M = system: Malme-3M
OVCAR-4 = system: OVCAR-4
SK-MEL-28 = system: SK-MEL-28
HT-29 = system: HT-29
NCI/ADR-RES = system: NCI/ADR-RES
CAKI-1 = system: CAKI-1
SNB-75 = system: SNB-75
NCI-H460 = system: NCI-H460
T47D = system: T47D
MCF7 = system: MCF7

Measured: GI50

NC1CC(=O)c2csc(Br)c21 (stereo not drawn)
inactive: LOX IMVI 15.6 µM | 786-0 12.9 µM | SK-OV-3 > 64.6 µM | NCI-H23 17.1 µM | M14 19.5 µM | KM12 12.2 µM | Hs-578T 17.4 µM | SN12C 13.4 µM | SNB-19 23.3 µM | PC-3 14 µM | RXF 393 17.2 µM | SK-MEL-5 20.9 µM | A549 36.7 µM | COLO 205 16.5 µM | NCI-H226 22.9 µM | HOP-92 9.89 µM | OVCAR-5 14.4 µM | SF-295 35.2 µM | UO-31 16 µM | TK-10 12.9 µM | UACC-257 17.3 µM | SR 5.09 µM | RPMI-8226 4.82 µM | U-251 18.1 µM | SK-MEL-2 16 µM | MDA-MB-435 12.9 µM | CCRF-CEM 4.15 µM | HCT-116 11.2 µM | MDA-N 13.6 µM | NCI-H522 2.05 µM | UACC-62 16.5 µM | DU-145 20.7 µM | OVCAR-3 15.3 µM | BT-549 11.8 µM | SW-620 4.84 µM | EKVX 15.1 µM | A498 > 36.5 µM | OVCAR-8 16.6 µM | SF-539 2.52 µM | HCC 2998 18.5 µM | MDA-MB-231 23.9 µM | HOP-62 24.4 µM | SF-268 20 µM | MOLT-4 15.1 µM | IGROV-1 7.76 µM | ACHN 16.4 µM | K562 5.97 µM | HL-60 4.39 µM | Malme-3M 17.2 µM | OVCAR-4 16.5 µM | SK-MEL-28 18.5 µM | HT-29 19.6 µM | NCI/ADR-RES 20.1 µM | CAKI-1 10.9 µM | SNB-75 23.1 µM | NCI-H460 20.3 µM | T47D 24 µM | MCF7 21.1 µM
7.71 µM: HCT-15

CN(C)Cc1cc(C(=O)/C=C/c2ccccc2)cc(CN(C)C)c1O
30.3 µM: HCT-15
inactive: LOX IMVI 5.14 µM | 786-0 30.1 µM | NCI-H23 28.1 µM | M14 20.7 µM | KM12 18.6 µM | Hs-578T 36.1 µM | SN12C 11.7 µM | SNB-19 29.1 µM | PC-3 12.6 µM | RXF 393 16.5 µM | SK-MEL-5 16.6 µM | A549 23.4 µM | COLO 205 17.8 µM | NCI-H226 27.9 µM | HOP-92 26.7 µM | OVCAR-5 87.5 µM | SF-295 15.5 µM | UO-31 17.5 µM | TK-10 37.3 µM | UACC-257 13.3 µM | SR 19.7 µM | RPMI-8226 11.8 µM | U-251 35.3 µM | MDA-MB-435 31.6 µM | CCRF-CEM 19.4 µM | HCT-116 19.7 µM | MDA-N 13.3 µM | NCI-H522 19.5 µM | DU-145 33 µM | OVCAR-3 18.7 µM | BT-549 19.9 µM | SW-620 18.2 µM | EKVX 33.6 µM | A498 21.8 µM | OVCAR-8 27 µM | SF-539 19.7 µM | HCC 2998 21.3 µM | MDA-MB-231 21.9 µM | HOP-62 32.4 µM | SF-268 32.5 µM | MOLT-4 16.8 µM | IGROV-1 31.9 µM | ACHN 15.8 µM | K562 14.2 µM | HL-60 15.5 µM | Malme-3M 22.6 µM | OVCAR-4 20.4 µM | SK-MEL-28 20.6 µM | HT-29 16.9 µM | NCI/ADR-RES 26.5 µM | CAKI-1 36.1 µM | SNB-75 24.9 µM | NCI-H460 15.9 µM | T47D 30.8 µM | MCF7 30.8 µM

CCC(C#N)(c1ccccc1)N(CCc1ccccc1)C(=O)c1ccccc1 (stereo not drawn)
inactive: LOX IMVI > 100 µM | 786-0 13.3 µM | SK-OV-3 32.8 µM | NCI-H23 76.9 µM | M14 > 100 µM | KM12 > 100 µM | Hs-578T 18.2 µM | SN12C 85.5 µM | SNB-19 28 µM | PC-3 > 100 µM | RXF 393 24.5 µM | SK-MEL-5 > 100 µM | A549 77.1 µM | COLO 205 > 100 µM | NCI-H226 18.5 µM | HOP-92 12.6 µM | OVCAR-5 > 100 µM | SF-295 29.6 µM | UO-31 64.3 µM | TK-10 62.1 µM | UACC-257 > 100 µM | SR > 100 µM | RPMI-8226 > 100 µM | U-251 30.3 µM | SK-MEL-2 67 µM | MDA-MB-435 > 100 µM | CCRF-CEM > 100 µM | HCT-116 24.8 µM | MDA-N > 100 µM | NCI-H522 > 100 µM | UACC-62 49.5 µM | DU-145 > 100 µM | OVCAR-3 85.9 µM | BT-549 70.8 µM | SW-620 > 100 µM | EKVX > 100 µM | A498 24.2 µM | OVCAR-8 20 µM | SF-539 15.6 µM | HCC 2998 54.7 µM | MDA-MB-231 13.5 µM | HOP-62 15.9 µM | SF-268 88.5 µM | MOLT-4 > 100 µM | IGROV-1 46.9 µM | ACHN 51.2 µM | K562 > 100 µM | HL-60 > 100 µM | Malme-3M > 100 µM | OVCAR-4 10.8 µM | SK-MEL-28 42.6 µM | HT-29 > 100 µM | NCI/ADR-RES 54.3 µM | CAKI-1 > 100 µM | SNB-75 29.5 µM | T47D > 100 µM | MCF7 > 100 µM
> 100 µM: HCT-15
